Article PMC11813896, “Bis(7)-harmine derivatives as potential multi-target anti-Alzheimer agents” (Frontiers in Chemistry, 2025)

Legend:
[1] = target: hAChE (Homo sapiens, UniProt P22303); experiment: biochemical; conditions: for inhibition at 1 µM: compound at 1 μM, read-out: inhibition of hAChE in primary screening; for IC50: Mean ± SD from 3-5 assays, read-out: IC50 (nM) for cholinesterase hAChE
Procedure: 50 μL of hAChE (0.02 unit/mL) or hBChE (0.02 unit/mL) were incubated with 10 μL of the compound in 96-well plates at 37°C for 6 min. Subsequently, 30 μL of a substrate solution containing acetylthiocholine iodide (ATCI) or butyrylthiocholine iodide (BTCI) at a concentration of 0.01 M was added, and the mixture was further incubated at 37°C for an additional duration of 12 min.

[2] = target: hBuChE (Homo sapiens, UniProt P06276); experiment: Ellman's assay, hBuChE inhibition; type: biochemical; conditions: for inhibition at 1 µM: compound at 1 μM, read-out: inhibition of hBuChE in primary screening; for IC50: Mean ± SD from 3-5 assays, read-out: IC50 (nM) for cholinesterase hBuChE
Procedure: The Ellman’s assay was utilized to assess the inhibitory potential of novel bis(7)-harmine derivatives against hAChE and hBuChE. 50 μL of hAChE (0.02 unit/mL) or hBChE (0.02 unit/mL) were incubated with 10 μL of the compound in 96-well plates at 37°C for 6 min. Subsequently, 30 μL of a substrate solution containing acetylthiocholine iodide (ATCI) or butyrylthiocholine iodide (BTCI) at a concentration of 0.01 M was added, and the mixture was further incubated at 37°C for an additional duration of 12 min. Finally, the activity was measured by adding 150 μL of a solution containing 5,5′−dithiobis (2-nitrobenzoic acid) (DTNB) at a concentration of 0.01 M, followed by measuring absorbance at a wavelength of 415 nm using an Evolution 300 PC UV-Vis Spectrophotometer.

[3] = target: T1, recombinant hMAO-A (Homo sapiens, UniProt P21397); experiment: biochemical; conditions: for inhibition at 1 µM: compound at 1 μM, read-out: inhibition of hMAO-A in primary screening; for IC50: mean ± SD, read-out: IC50 (nM) for monoamine oxidases hMAO-A
T1 construct: purchased Sigma-Aldrich
T1 sequence (P21397 1-527): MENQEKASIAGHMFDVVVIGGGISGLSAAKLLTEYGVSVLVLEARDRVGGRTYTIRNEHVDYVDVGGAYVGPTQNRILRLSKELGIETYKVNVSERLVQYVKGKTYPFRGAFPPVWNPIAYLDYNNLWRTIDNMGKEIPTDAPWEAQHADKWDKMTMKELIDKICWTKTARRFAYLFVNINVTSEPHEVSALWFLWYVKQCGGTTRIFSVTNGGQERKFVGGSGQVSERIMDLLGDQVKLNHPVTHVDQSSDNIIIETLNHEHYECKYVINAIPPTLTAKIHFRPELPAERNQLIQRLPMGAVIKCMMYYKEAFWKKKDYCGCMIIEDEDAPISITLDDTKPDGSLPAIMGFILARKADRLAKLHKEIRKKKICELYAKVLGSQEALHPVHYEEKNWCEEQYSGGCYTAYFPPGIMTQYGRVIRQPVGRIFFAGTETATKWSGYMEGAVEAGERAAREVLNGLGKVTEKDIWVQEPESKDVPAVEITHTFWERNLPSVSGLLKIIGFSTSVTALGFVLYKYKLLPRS
Procedure: (§1) Briefly, the compounds under investigation and the reference inhibitor were preincubated with kynuramine at 37°C for 10 min in 96-well microplates. […] The enzymatic reactions were terminated by adding 400 μL of 2 N NaOH and 1,000 μL of water, followed by centrifugation at 16,000 g for 10 min. Subsequently, the concentrations of MAOs that produced 4-hydroxyquinoline were determined by measuring the fluorescence of the supernatant using a Varioskan Flash Multimode Reader ([…]) with excitation and emission wavelengths set at 310 nm and 400 nm, respectively. The IC50 values were calculated from dose-response curves and expressed as the mean ± standard deviation. These values were determined based on at least three independent experiments, each performed in triplicate.

[4] = target: T2, recombinant hMAO-B (Homo sapiens, UniProt P27338); experiment: biochemical; conditions: for inhibition at 1 µM: compound at 1 μM, read-out: inhibition of hMAO-B in primary screening; for IC50: mean ± SD, read-out: IC50 (nM) for monoamine oxidases hMAO-B
T2 construct: purchased Sigma-Aldrich
T2 sequence (P27338 1-520): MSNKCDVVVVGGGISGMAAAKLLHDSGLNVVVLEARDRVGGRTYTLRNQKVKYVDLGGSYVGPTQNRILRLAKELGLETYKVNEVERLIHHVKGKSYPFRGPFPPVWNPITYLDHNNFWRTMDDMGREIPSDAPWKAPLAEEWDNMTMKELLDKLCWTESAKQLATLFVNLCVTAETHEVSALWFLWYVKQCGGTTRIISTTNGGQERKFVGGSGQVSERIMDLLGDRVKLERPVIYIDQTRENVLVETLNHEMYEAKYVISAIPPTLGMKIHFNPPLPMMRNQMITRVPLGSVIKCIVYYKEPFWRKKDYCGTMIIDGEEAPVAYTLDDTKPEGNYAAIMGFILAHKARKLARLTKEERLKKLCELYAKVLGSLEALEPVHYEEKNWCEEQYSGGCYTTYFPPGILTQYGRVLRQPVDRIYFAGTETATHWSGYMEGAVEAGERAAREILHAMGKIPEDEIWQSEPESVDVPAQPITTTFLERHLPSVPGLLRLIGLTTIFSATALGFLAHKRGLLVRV
Procedure: as §1

[5] = target: Aβ 1−42 (Homo sapiens, UniProt P05067); experiment: Thioflavin T fluorescence assay, Aβ 1−42 self-aggregation; type: biochemical; conditions: for inhibition percent ratio of self-induced Aβ 1-42 aggregation: compound at 20 μM; for IC50: Aβ 1-42 20 μM, 37°C, 24 h
Procedure: The thioflavin T (Th-T) fluorescence assay was used to assess the inhibition of Aβ 1−42 self-aggregation. […] Subsequently, the reaction was terminated to a final volume of 200 μL using Th-T (10 μM) solution.

Sequence of Aβ 1−42 (P05067 672-713 limits assumed): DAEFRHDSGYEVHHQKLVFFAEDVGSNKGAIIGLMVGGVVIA
Sequence of hBuChE (P06276 29-602): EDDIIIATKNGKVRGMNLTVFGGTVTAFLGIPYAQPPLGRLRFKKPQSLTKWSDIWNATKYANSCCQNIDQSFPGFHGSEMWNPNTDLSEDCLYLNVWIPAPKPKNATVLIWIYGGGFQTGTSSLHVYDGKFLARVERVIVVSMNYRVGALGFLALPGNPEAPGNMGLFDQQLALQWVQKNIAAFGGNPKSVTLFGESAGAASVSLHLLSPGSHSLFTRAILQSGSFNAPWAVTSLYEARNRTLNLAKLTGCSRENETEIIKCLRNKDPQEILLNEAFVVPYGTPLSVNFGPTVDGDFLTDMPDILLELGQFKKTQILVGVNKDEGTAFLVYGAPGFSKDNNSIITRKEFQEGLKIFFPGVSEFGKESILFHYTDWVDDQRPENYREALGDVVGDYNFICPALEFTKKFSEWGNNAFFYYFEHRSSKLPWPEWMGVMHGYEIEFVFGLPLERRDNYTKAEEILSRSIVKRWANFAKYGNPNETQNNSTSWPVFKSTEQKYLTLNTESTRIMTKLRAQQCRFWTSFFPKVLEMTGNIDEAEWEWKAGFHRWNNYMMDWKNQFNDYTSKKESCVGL
Sequence of hAChE (P22303 32-614): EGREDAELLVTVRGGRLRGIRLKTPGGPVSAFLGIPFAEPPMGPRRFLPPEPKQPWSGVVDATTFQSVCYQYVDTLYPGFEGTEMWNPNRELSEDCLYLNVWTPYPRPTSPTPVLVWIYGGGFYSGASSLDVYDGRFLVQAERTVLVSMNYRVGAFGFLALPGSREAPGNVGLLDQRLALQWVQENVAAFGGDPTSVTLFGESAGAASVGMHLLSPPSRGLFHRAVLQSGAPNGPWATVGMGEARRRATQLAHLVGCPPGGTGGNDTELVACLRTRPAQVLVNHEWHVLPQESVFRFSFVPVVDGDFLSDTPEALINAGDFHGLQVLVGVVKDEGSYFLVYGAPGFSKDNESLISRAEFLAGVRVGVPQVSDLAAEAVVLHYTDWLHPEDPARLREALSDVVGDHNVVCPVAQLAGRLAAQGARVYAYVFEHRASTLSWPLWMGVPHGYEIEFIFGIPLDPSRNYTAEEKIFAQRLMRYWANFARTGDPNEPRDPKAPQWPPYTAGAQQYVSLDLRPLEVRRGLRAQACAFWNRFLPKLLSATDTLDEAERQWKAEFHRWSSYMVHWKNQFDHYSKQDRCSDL

Compound	inhibition at 1 µM [1] [%]	inhibition at 1 µM [2] [%]	inhibition at 1 µM [3] [%]	inhibition at 1 µM [4] [%]	inhibition percent ratio of self-induced Aβ 1-42 aggregation [5] [%]	IC50 [1] [nM]	IC50 [2] [nM]	S.I. Selectivity index IC50(hMAO-B)/IC50(hMAO-A) [3]	IC50 [3] [nM]	IC50 [4] [nM]	IC50 [5] [µM]	S.I. Selectivity index IC50(hBuChE)/IC50(hAChE) [1]
Cc1nccc2c3ccc(OCCCCOc4ccc5c6ccnc(C)c6n(C)c5c4)cc3n(C)c12 [Compound 4a, 1,4-bis ((1,9-dimethyl-9H-pyrido [3,4-b]indol-7-yl)oxy)butane]	36.3	30.5	41.5	13.8	39.3	–	–	–	–	–	–	–
C=CCn1c2cc(OCCCCCCCOc3ccc4c5ccnc(C)c5n(CC=C)c4c3)ccc2c2ccnc(C)c21 [Compound 7d, 1,7-bis ((9-allyl-1-methyl-9H-pyrido [3,4-b]indol-7-yl)oxy)heptane]	–	–	–	–	–	896 ± 65.4	23.7 ± 1.3	0.2	74.6 ± 5.2	12.6 ± 0.76	17.1 ± 0.6	–
C=CCn1c2cc(OCCCCOc3ccc4c5ccnc(C)c5n(CC=C)c4c3)ccc2c2ccnc(C)c21 [Compound 4d, 1,4-bis ((9-allyl-1-methyl-9H-pyrido [3,4-b]indol-7-yl)oxy)butane]	45.6	32.9	49.3	30.3	35.5	–	–	–	–	–	–	–
CCn1c2cc(OCCCCCCCOc3ccc4c5ccnc(C)c5n(CC)c4c3)ccc2c2ccnc(C)c21 [Compound 7b, 1,7-bis ((9-ethyl-1-methyl-9H-pyrido [3,4-b]indol-7-yl)oxy)heptane]	–	36.5	–	–	29.6	386 ± 26.8	–	0.5	150 ± 12.4	79.8 ± 4.9	–	>2.6
CCCn1c2cc(OCCCCCCCOc3ccc4c5ccnc(C)c5n(CCC)c4c3)ccc2c2ccnc(C)c21 [Compound 7c, 1,7-bis ((1-methyl-9-propyl-9H-pyrido [3,4-b]indol-7-yl)oxy)heptane]	–	44.8	–	34.1	–	39.2 ± 2.9	–	>111.1	9.1 ± 0.6	–	13.3 ± 0.6	>25.6
CCn1c2cc(OCCCCCOc3ccc4c5ccnc(C)c5n(CC)c4c3)ccc2c2ccnc(C)c21 [Compound 5b, 1,5-bis ((9-ethyl-1-methyl-9H-pyrido [3,4-b]indol-7-yl)oxy)pentane]	–	–	42.4	33.7	31.8	115 ± 7.36	928 ± 62.1	–	–	–	–	8.1
CCn1c2cc(OCCCCOc3ccc4c5ccnc(C)c5n(CC)c4c3)ccc2c2ccnc(C)c21 [Compound 4b, 1,4-bis ((9-ethyl-1-methyl-9H-pyrido [3,4-b]indol-7-yl)oxy)butane]	–	36.7	–	28.6	27.6	101 ± 6.8	–	>1.4	686 ± 43.5	–	–	>9.9
C=CCn1c2cc(OCCCCCOc3ccc4c5ccnc(C)c5n(CC=C)c4c3)ccc2c2ccnc(C)c21 [Compound 5d, 1,5-bis ((9-allyl-1-methyl-9H-pyrido [3,4-b]indol-7-yl)oxy)pentane]	–	41.2	41.1	29.8	43.6	288 ± 21.3	–	–	–	–	–	>3.4
